Experimental data taken from ChEMBL document CHEMBL3994674, “Toward Resolving the Resveratrol Conundrum: Synthesis and in Vivo Pharmacokinetic Evaluation of BCP-Resveratrol” (ACS Med Chem Lett, 2017).
≈ marks a conversion by molar mass, not a printed value.

Key:
[1] = Apparent intrinsic clearance in rat hepatocytes assessed per million cells at 5 uM by LC-MS/MS analysis; format: ADME, cell-based, Hepatocyte
[2] = Drug metabolism in human hepatocytes assessed as resveratrol-glucuronide formation at 5 uM by LC-MS/MS analysis; format: ADME, cell-based, Hepatocyte
[3] = AUC (0 to last) in Wistar rat at 20 mg/kg, po by HPLC-MS analysis; format: ADME, organism-based; design: dose 20 mg/kg, time 0 - last, route oral; details: in vivo
[4] = Octanol/phosphate buffer partition co-efficient, log D of the compound at 75 uM at pH 7.4 after 2 hrs by LC-Ms/MS based shake-flask method; format: physicochemical
[5] = Cmax in Wistar rat at 20 mg/kg, po by HPLC-MS analysis; format: ADME, organism-based; design: dose 20 mg/kg, route oral; details: in vivo
[6] = Drug metabolism in human hepatocytes assessed as resveratrol-sulfate formation at 5 uM by LC-MS/MS analysis; format: ADME, cell-based, Hepatocyte
[7] = Half life in human hepatocytes at 5 uM by LC-MS/MS analysis; format: ADME, cell-based, Hepatocyte
[8] = tested on: SU-DHL10; test: Cytotoxicity against human SU-DHL10 cells assessed as growth inhibition at 30 uM after 72 hrs by CellTitre-Glo luminescent assay relative to control; format: functional; details: SU-DHL10, 72 h, read-out: GI
[9] = Half life in rat hepatocytes at 5 uM by LC-MS/MS analysis; format: ADME, cell-based, Hepatocyte
[10] = tested on: MDA-MB-231; test: Cytotoxicity against human MDA-MB-231 cells assessed as growth inhibition at 30 uM after 72 hrs by CellTitre-Glo luminescent assay relative to control; format: functional; details: MDA-MB-231, 72 h, read-out: GI
[11] = Tmax in Wistar rat at 20 mg/kg, po by HPLC-MS analysis; format: ADME, organism-based; details: in vivo
[12] = Cmax in CD rat at 50 mg/kg/day, po administered via gavage every 24 hrs for 14 consecutive days measured on day 14 post dose by HPLC-MS analysis; format: ADME, organism-based; design: dose 50 mg/kg/day, route oral; details: in vivo
[13] = Cmax in CD rat at 50 mg/kg/day, po administered via gavage every 24 hrs for 14 consecutive days measured on day 1 post dose by HPLC-MS analysis; format: ADME, organism-based; design: dose 50 mg/kg/day, route oral; details: in vivo
[14] = tested on: MIA PaCa-2; test: Cytotoxicity against human MIAPaCa2 cells assessed as growth inhibition at 30 uM after 72 hrs by CellTitre-Glo luminescent assay relative to control; format: functional; details: MIA PaCa-2, 72 h, read-out: GI
[15] = Thermodynamic solubility in pH 7.4 PBS at 10 mg/ml after 1 hr by LC-Ms/MS based shake flask method; format: physicochemical; details: read-out: Therm_solubility
[16] = Apparent intrinsic clearance in human hepatocytes assessed per million cells at 5 uM by LC-MS/MS analysis; format: ADME, cell-based, Hepatocyte
[17] = Apparent clearance in Wistar rat at 20 mg/kg, po by HPLC-MS analysis; format: ADME, organism-based; details: in vivo
[18] = Half life in Wistar rat at 20 mg/kg, po by HPLC-MS analysis; format: ADME, organism-based; details: in vivo
[19] = Drug level in human hepatocytes treated with resveratrol at 5 uM by LC-MS/MS analysis; format: ADME, cell-based, Hepatocyte
[20] = tested on: MDA-MB-231; test: Cytotoxicity against human MDA-MB-231 cells assessed as growth inhibition after 72 hrs by CellTitre-Glo luminescent assay; format: functional; details: MDA-MB-231, 72 h
[21] = tested on: SU-DHL10; test: Cytotoxicity against human SU-DHL10 cells assessed as growth inhibition after 72 hrs by CellTitre-Glo luminescent assay; format: functional; details: SU-DHL10, 72 h
[22] = tested on: MIA PaCa-2; test: Cytotoxicity against human MIAPaCa2 cells assessed as growth inhibition after 72 hrs by CellTitre-Glo luminescent assay; format: functional; details: MIA PaCa-2, 72 h
[23] = Plasma concentration in Sprague-Dawley rat at 20 mg/kg, po administered as single dose via gavage up to 4 hrs by HPLC-MS analysis; format: ADME, organism-based
[24] = AUC (0 to last) in Sprague-Dawley rat at 20 mg/kg, po administered as single dose via gavage after 4 hrs by HPLC-MS analysis; format: ADME, organism-based; design: dose 20 mg/kg, route oral, time 0 - last; details: in vivo
[25] = Cmax in Sprague-Dawley rat at 20 mg/kg, po administered as single dose via gavage after 5 mins by HPLC-MS analysis; format: ADME, organism-based; design: dose 20 mg/kg, route oral; details: in vivo
[26] = Apparent clearance in Sprague-Dawley rat at 20 mg/kg, po administered as single dose via gavage by HPLC-MS analysis; format: ADME, organism-based; details: in vivo
[27] = Half life in Sprague-Dawley rat at 20 mg/kg, po administered as single dose via gavage by HPLC-MS analysis; format: ADME, organism-based; details: in vivo
[28] = Tmax in Sprague-Dawley rat at 20 mg/kg, po administered as single dose via gavage by HPLC-MS analysis; format: ADME, organism-based; details: in vivo

For `Oc1ccc(/C=C/c2cc(O)cc(O)c2)cc1` [RESVERATROL], the “CLH(app)” value [1] was over 184.8 µL/min, the Drug metabolism [2] was “Metabolite_Detected” and the AUC(0-t) [3] was 47.5 ng·h/mL. For the same compound, the logD at 2 h, 75 µM [4] was 2.9, the Cmax [5] was 273 ng/mL and the Drug metabolism [6] was “Metabolite_Detected”. It also gave a half-life at 5 µM [7] of 23.2 min, an inhibition of growth at 30 µM [8] of 46% and a half-life at 5 µM [9] of under 7.5 min. The inhibition of growth at 30 µM [10] was 20%, the Tmax [11] was 4.98 min and the Cmax [12] was 176 ng/mL. For the same compound, the Cmax [13] was 76.7 ng/mL, the inhibition of growth at 30 µM [14] was 30% and the solubility thermodynamic at 1 h [15] was 19 µg/mL (≈ 83.2 µM). The “CLH(app)” value [16] was 29.9 µL/min, the CL/F [17] was 409 L/h/kg and the half-life [18] was 11.4 min.

For `O=S(=O)(O)Oc1ccc(/C=C/c2cc(O)cc(O)c2)cc1`, the Drug metabolism [19] was “Metabolite_Detected”.

In the case of `COc1ccc(C[C@H](N)C(=O)N[C@H]2[C@@H](O)[C@H](n3cnc4c(N(C)C)ncnc43)O[C@@H]2CO)cc1` [PUROMYCIN], the CC50 [20] is reported as 480 nM, the CC50 [21] is reported as 110 nM and the CC50 [22] is reported as 200 nM.

In the case of `Oc1cc(O)cc(/C=C/C23CC(O)(C2)C3)c1`, the “CLH(app)” value [1] is reported as 57.4 µL/min, the logD at 2 h, 75 µM [4] is reported as 1.9 and the concentration at 4 h [23] is reported as 85 ng/mL. It also gave a half-life at 5 µM [7] of 90.4 min, an AUC(0-t) at 4 h [24] of 587 ng·h/mL and a Cmax [25] of 942 ng/mL. It also gave an inhibition of growth at 30 µM [8] of 41%, a half-life at 5 µM [9] of 24.2 min and an inhibition of growth at 30 µM [10] of 22%. For the same compound, the CL/F [26] was 21.8 L/h/kg, the half-life [27] was 156 min and the inhibition of growth at 30 µM [14] was 30%. For the same compound, the solubility thermodynamic at 1 h [15] was 619 µg/mL (≈ 2840 µM), the “CLH(app)” value [16] was 7.7 µL/min and the Tmax [28] was 4.02 min.

For `O=C(O)[C@H]1O[C@@H](Oc2ccc(/C=C/c3cc(O)cc(O)c3)cc2)[C@H](O)[C@@H](O)[C@@H]1O`, the Drug metabolism [19] was “Metabolite_Detected”.
